The subject of assay [1] is Bifidobacterium animalis. The assay can be described thus: Growth of B. animalis in MRS media, OD600 plate reader. The note with it: 24 hrs. It is filed as cell-based. The protocol:
MRS media was inoculated with 1% overnight grown culture of Bifidobacterium animalis. Cells were grown with the addition of 5 mM ATP (Sigma) or 100 nM potato apyrase (ATPase; Sigma catalog #A6535). Experiments were performed in volumes of 200 μl per well in standard microtiter plates. Growth was assessed via Synergy HTX multi-mode plate reader (Bio Tek Instruments) at OD600 every 30 minutes for 24 hrs. Each plate was incubated at 37° C. and shaken once every 30 mins just before the reading.
MRS media was inoculated with 1% over night grown culture of B. animalis. Cells were grown with 100 nM potato apyrase (ATPase) or heat-treated (95° C. for 10 mins) 100 nM potato apyrase. Experiments were performed in volumes of 200 μl per well in standard microtiter plates. Growth was assessed via plate reader at OD600 every 30 minutes.

Another assay relates to Akkermansia sp. The assay can be described thus: Effect of ATP and ATPase on growth (OD600), Table 1. It is filed as cell-based. The note with it: YCFAC + Mucin media; 5 mM ATP; 37° C. anaerobically, 48 hours. How it is done: (§1) Different growth media were inoculated with 1% over night grown culture of various bacterial and yeast species (as detailed in Table 1). Cells were grown in the presence of 5 mM exogenously-added ATP or 100 nM potato apyrase or bovine alkaline phosphatase (ATPase). Experiments were done in volumes of 200 μl per well in standard microtiter plates. Growth was assessed via plate reader at OD600 every 30 minutes for 48 hours. All the experiments were done at 37° C. anaerobically except for yeast strain Kazachstania unispora where cells were grown aerobically at 28° C.

The subject of assay [2] is Bacillus amyloliquefaciens. Described as above. It is filed as cell-based. The note with it: TSA media; 5 mM ATP; 37° C. anaerobically, 48 hours. The protocol: as §1
In another assay the test system is Bifidobacterium Infantis. The assay is described as above. The note with it: MRS media; 5 mM ATP; 37° C. anaerobically, 48 hours. It is filed as cell-based. The protocol: as §1
Assay [3] deals with Bifidobacterium animalis. The assay is described as above. Particulars: MRS media; 5 mM ATP; 37° C. anaerobically, 48 hours. It is filed as cell-based. How it is done: as §1
Another assay has as its system Bifidobacterium lactis. The assay is described as above. It is filed as cell-based. Particulars: MRS media; 5 mM ATP; 37° C. anaerobically, 48 hours. The protocol:
as §1

A further assay concerns Bifidobacterium longum. Described as above. The note with it: BHI media; 5 mM ATP; 37° C. anaerobically, 48 hours. It is filed as cell-based. How it is done:
as §1

Another assay has as its system Kazachstania unispora. The description is as above. It is filed as cell-based. The note with it: YM media; 5 mM ATP; aerobically at 28° C., 48 hours. How it is done:
as §1

In another assay the test system is Lactobacillus crispatus. The description is as above. It is filed as cell-based. The note with it: MRS media; 5 mM ATP; 37° C. anaerobically, 48 hours. The protocol:
as §1

A further assay has as its system Lactobacillus rhamnosus. The description is as above. It is filed as cell-based. The note with it: 5 mM ATP, 37° C. anaerobically, 48 hours. How it is done: as §1
The subject of a further assay is Oscillibacter sp. The description is as above. Particulars: YCFAC media; 5 mM ATP; 37° C. anaerobically, 48 hours. It is filed as cell-based. The protocol:
as §1

The subject of the next assay is Prevotella copri. The assay is described as above. The note with it: TSA media; 5 mM ATP; 37° C. anaerobically, 48 hours. It is filed as cell-based. How it is done: as §1
Another assay concerns CHO wild-type cell line. The assay can be described thus: CHO cell growth in suspension, trypan blue cell count. Particulars: for increase in CHO cell numbers: 10 nM ATPase, after 60 hrs of growth in suspension. It is filed as cell-based, Chinese hamster. The source says: (§2) The growth effect of exogenously added ATPase enzymes was examined on established mammalian (Chinese hamster ovary (CHO)) cell lines. CHO wild-type cell line was purchased from Creative Biogene (NY, USA) Cat No. CSC-C3064, and CHO cell line constitutively expressing Green Fluorescent Protein (CHO-GFP) was purchased from GenTarget, Inc (San Diego, CA, USA) Cat No. SC039-Puro. Wild type CHO cell line was maintained in CD OptiCHO™ (ThermoFisher) medium for growth in suspension. GFP expressing CHO cell line was maintained in RPMI 1640 media (ThermoFisher) for adherent growth. Cell lines were cultured in a humidified incubation chamber at 37° C. with 5% CO2.
To measure the effect on CHO cells in suspension, cultures were seeded onto the wells of 6-well plates at 1×10^4 cells per well and incubated for 12 hours. Subsequently, ATPase (potato apyrase or bacterial enzyme CRC22110 (SEQ ID NO:1)) were added to the wells at 10 nM final concentration and incubated for an additional 48 hours. The potato apyrase (Cat No. A6410) and, was sourced from Sigma. The recombinant CRC22110 (SEQ ID NO: 1) enzyme was purified from Bacillus cultures using chromatography methods known in the art. After a total of 60 hours in culture, cells were detached by trypsin treatment, stained with trypan blue and counted in a Countess 3 FL system (Invitrogen). Data on FIG. 4 show the effect of ATPase on CHO cell growth.

Another assay concerns CHO-GFP cell line. The experiment in a line: GFP expression of CHO-GFP cell line in adherent culture, fluorescence imaging. It is filed as cell-based, Chinese hamster. The note with it: 10 nM ATPase; imaged after 60 hrs.
Description: as §2
To study the effect of exogenous ATPase on recombinant protein expression by mammalian cells, the CHO-GFP cell line was used. CHO-GFP cells were seeded onto the wells of 6-well plates at 1×10^4 cells per well and incubated for 12 hours. Subsequently, ATPase (potato Apyrase or bacterial enzyme CRC22110) were added to the wells at 10 nM final concentration and cells were incubated for an additional 48 hours For GFP expression visualization, cells were imaged after 60 hrs of incubation with ATPase by using Invitrogen™ EVOS™ FL Imaging System. […] The number of cells displaying fluorescence signal and the amount of fluorescence are both increased in the cultures grown with exogenous ATPases, potato apyrase or CRC22110.

Assay [4] relates to B. animalis subsp. lactis 420. The experiment in a line: eATP in culture supernatants, Luciferase Reporter Assay. The note with it: 100 nM potato apyrase; MRS, 37° C. anaerobic; 0, 7 and 13 hr. It is filed as cell-based. The protocol:
MRS media was inoculated with 1% overnight grown culture of B. animalis subsp. lactis 420. Cells were grown at 37° C. under anaerobic conditions with and without potato apyrase. Potato apyrase was used at 100 nM. 200 μl of the sample was collected at different time points. Cells were harvested by centrifugation at 5000 rpm for 5 mins. Supernatants were used to estimate nanomolar ATP using a Luciferase® Reporter Assay System (Promega).
ATP measurements were performed on supernatants collected at 0, 7 and 13 hr time points.
For orientation: In a reporter assay the amount or activity of a reporter protein is the signal.

We go through three molecules from patent US20240425805A1, “CELL CULTURE METHODS” (INTERNATIONAL N&H DENMARK APS, priority 2021, published 2024).

Consider `Nc1ncnc2c1ncn2[C@@H]1O[C@H](COP(=O)(O)OP(=O)(O)OP(=O)(O)O)[C@@H](O)[C@H]1O` [ATP, Adenosine triphosphate], for which the “cellular growth (OD600)” value in the assay with Bifidobacterium animalis [1] (5 mM exogenously added ATP, 37° C.) was “supressed”. The “Sensitivity to ATP” value (in the assay with Akkermansia sp; in assay [2]; with Bifidobacterium Infantis; in the assay with Bifidobacterium animalis [3]; with Bifidobacterium lactis; with Bifidobacterium longum) was “YES” throughout. In addition, the “Sensitivity to ATP” value in the assay with Kazachstania unispora, in the assay with Lactobacillus crispatus, in the assay with Lactobacillus rhamnosus (BHI media), in the assay with Lactobacillus rhamnosus (MRS media), in the assay with Oscillibacter sp and in the assay with Prevotella copri was “YES” in each case.

B1: CRC22110: recombinant bacterial enzyme CRC22110 (SEQ ID NO:1), Gallaecimonas xiamenensis 3-C-1, purified from Bacillus cultures (protein, listed as Gallaecimonas xiamenensis)
chain: ADKPACRAVFDAGSSGTRLFLYVQQEGGWQPWPGAKLGALADPVRQHQGPKAMAALAADLANSLEALRQDGPTNSEGQPRWQGFDWQQACRLQSVSVLATAGMRLAEQQDPVASVALWQEVQQALAGLLGPAVAIDARTLTGFEEGFYAWLAARARLGRSDMGIVEMGGASSQVAFPCPACDRADDAVQQVRLEGQTLDFYSYSFLGLGQDEAPKVLGVPHACRYGAGVKDPNWQLGQCQAQLPLTLGRALKDPYNFQGQGQGGYRQVPTEKAGVKDWLLTGAFQYNTPDQLDSCCLNQGQCYQPSTACFRVAYLPLYLDSLGVDPHSPDLDVSWTLGAVLCRNEQCLAPSKPPCRWRKAGCLAPSVGDGRPEGRPGQQPGGVQHRQH
Take B1: the “increase in CHO cell numbers” value with CHO wild-type cell line came out at 3 fold. Further, in the assay on CHO-GFP cell line, the “amount of fluorescence (GFP)” value was “increased” and the “number of cells displaying fluorescence signal (GFP)” value is listed as “increased”.

B2: potato apyrase: potato apyrase (ATPase; Sigma), EC 3.6.1.5; SEQ ID NO: 3, predicted mature SEQ ID NO: 4 (protein, listed as Solanum tuberosum)
chain: KNVNAQIPLRRHLLSHESEHYAVIFDAGSTGSRVHVFRFDEKLGLLPIGNNIEYFMATEPGLSSYAEDPKAAANSLEPLLDGAEGVVPQELQSETPLELGATAGLRMLKGDAAEKILQAVRNLVKNQSTFHSKDQWVTILDGTQEGSYMWAAINYLLGNLGKDYKSTTATIDLGGGSVQMAYAISNEQFAKAPQNEDGEPYVQQKHLMSKDYNLYVHSYLNYGQLAGRAEIFKASRNESNPCALEGCDGYYSYGGVDYKVKAPKKGSSWKRCRRLTRHALKINAKCNIEECTFNGVWNGGGGDGQKNIHASSFFYDIGAQVGIVDTKFPSALAKPIQYLNAAKVACQTNVADIKSIFPKTQDRNIPYLCMDLIYEYTLLVDGFGLNPHKEITVIHDVQYKNYLVGAAWPLGCAIDLVSSTTNKIRVASS
As for B2, in the assay with Bifidobacterium animalis [1] (100 nM potato apyrase alone), the “growth (OD600) versus cells-only control” value is “grew better than the cells-only control”. Also, the “growth (OD600) in the presence of exogenously-added ATP” value in the assay with Bifidobacterium animalis [1] (100 nM potato apyrase plus 5 mM ATP) is “negated the growth inhibitory effect of exogenously-added ATP”. In assay [4], the “ATP accumulation in culture supernatant” value is recorded as “did not exhibit ATP accumulation” and the “nanomolar ATP over time in culture supernatant” value was “decrease”. Moreover, in the assay with CHO wild-type cell line, the “increase in CHO cell numbers” value stood at 3 fold. Moreover, in the assay with CHO wild-type cell line (10 nM potato apyrase, 60 hours in culture), the “number of viable cells in culture (trypan blue exclusion)” value is given as “improves the number of viable cells in culture”. Also, in the assay with CHO-GFP cell line, the “amount of fluorescence (GFP)” value is “increased” and the “number of cells displaying fluorescence signal (GFP)” value is “increased”.
